In US9339503B2, “Tetrahydro-quinazolinone derivatives as TANK and PARP inhibitors” (MERCK PATENT GMBH, priority 2012, dated 2016):

Tests used:
[1] = target: T1, GST-tagged Tnks-2 (873-1166 aa) (Homo sapiens, UniProt Q9H2K2); assay: TNKS 2 activity ELISA (autoparsylation assay); assay type: biochemical; conditions: read-out: IC50 tankyrase 2 (ELISA assay)
T1 construct: GST-tagged Tnks-2 (873-1166 aa, prepared in-house); made in house
Experimental: (§1) Biochemical Activity Testing of TNKS 1 and 2: Activity ELISA (Autoparsylation Assay)
(§2) For analysis of autoparsylation activity of TNKS 1 and 2 an activity ELISA was performed: In the first step GST tagged TNKS was captured on a Glutathione coated plate. Then the activity assay with biotinylated NAD was performed in the absence/presence of the compounds. During the enzymatic reaction GST tagged TNKS transferred biotinylated ADP-ribose to itself from biotinylated NAD as co-substrate. For the detection streptavidin-HRP conjugate was added that bound to the biotinylated TNKS and was thereby captured to the plates. The amount of biotinylated resp autoparsylated TNKS was detected with a luminescence substrate for HRP. The level of the luminescence signal correlated directly with the amount of autoparsylated TNKS and therefore with activity of TNKS.
(§3) The activity ELISA was performed in 384 well Glutathione coated microtiter plates (Express capture Glutathione coated plate, Biocat, Heidelberg, Germany). The plates were pre-equilibrated with PBS. Then the plates were incubated with 50 μl 20 ng/well GST-tagged Tnks-1 (1023-1327 aa, prepared in-house), respectively GST-tagged Tnks-2 (873-1166 aa, prepared in-house) in assay buffer (50 mM HEPES, 4 mM Mg-chloride, 0.05% Pluronic F-68, 2 mM DTT, pH 7.7) overnight at 4° C. The plates were washed 3 times with PBS-Tween-20. The wells were blocked by incubation at room temperature for 20 minutes with 50 μl blocking buffer (PBS, 0.05% Tween-20, 0.5% BSA). Afterwards the plates were washed 3 times with PBS-Tween-20. The enzymatic reaction was performed in 50 μl reaction solution (50 mM HEPES, 4 mM Mg-chloride, 0.05% Pluronic F-68, 1.4 mM DTT, 0.5% DMSO, pH 7.7) with 10 μM bio-NAD (Biolog, Life science Inst., Bremen, Germany) as co-substrate in the absence or presence of the test compound (10 dilution concentrations) for 1 hour at 30° C. The reaction was stopped by 3 times washing with PBS-Tween-20. For the detection 50 μl of 20 ng/μl Streptavidin, HRP conjugate (MoBiTec, Göttingen, Germany) in PBS/0.05% Tween-20/0.01% BSA were added and the plates were incubated for 30 minutes at room temperature. After three times washing with PBS-Tween-20 50 μl of SuperSignal ELISA Femto Maximum sensitivity substrate solution (ThermoFisherScientific (Pierce), Bonn, Germany) were added. Following a 1 minute incubation at room temperature luminescence signals were measured with an Envision multimode reader (Perkin Elmer LAS Germany GmbH) at 700 nm. The full value used was the inhibitor-free reaction. The pharmacological zero value used was XAV-939 (Tocris) in a final concentration of 5 μM. The inhibitory values (IC50) were determined using either the program Symyx Assay Explorer® or Condosseo® from GeneData.

[2] = target: T2, GST-tagged Tnks-1 (1023-1327 aa) (Homo sapiens, UniProt O95271); assay: TNKS 1 activity ELISA (autoparsylation assay); assay type: biochemical; conditions: read-out: IC50 tankyrase 1 (ELISA assay)
T2 construct: GST-tagged Tnks-1 (1023-1327 aa, prepared in-house); made in house
Experimental: as §1, §2, §3

tankyrase 1/2 = assay: Measurement of cellular inhibition of tankyrase (Axin2 level, Luminex based assay, DLD1 cells); conditions: 24 hours, increase of Axin2 level, read-out: EC50 tankyrase 1/2 (cell assay)
Experimental: Measurement of Cellular Inhibition of Tankyrase
Since Tankyrases have been described to modulate cellular level of Axin2 (Huang et al., 2009; Nature) the increase of Axin2 level is used as read-out for determination of cellular inhibition of Tankyrases in a Luminex based assay.
Cells of the colon carcinoma cell line DLD1 are plated in 96 well plates with 1.5×10^4 cells per well. Next day, cells are treated with a serial-dilution of test compound in seven steps as triplicates with a final DMSO concentration of 0.3%. After 24 hours, cells are lysed in lysis buffer (20 mM Tris/HCl pH 8.0, 150 mM NaCl, 1% NP40, 10% Glycerol) and lysates are cleared by centrifugation through a 96 well filter plate (0.65 μm). Axin2 protein is isolated from cell lysates by incubation with a monoclonal anti-Axin2 antibody (R&D Systems #MAB6078) that is bound to fluorescent carboxybeads. Then, bound Axin2 is specifically detected with a polyclonal anti-Axin2 antibody (Cell Signaling #2151) and an appropriate PE-fluorescent secondary antibody. The amount of isolated Axin2 protein is determined in a Luminex^200 machine (Luminex Corporation) according to the manufacturer's instruction by counting 100 events per well. […] For analysis, the obtained data were normalized against the untreated solvent control and fitted for determination of the EC50 values using the Assay Explorer software (Accelrys).

[3] = target: T3, GST-tagged Tankyrase-1 (1023-1327 aa) (Homo sapiens, UniProt O95271); assay: Tankyrase 1 autoparsylation assay (HTRF enzyme assay); assay type: biochemical
T3 construct: GST-tagged Tankyrase-1 (1023-1327 aa)
Experimental: (§4) The autoparsylation assay was run in two steps: the enzymatic reaction in which GST-tagged Tankyrase-1, resp Tankyrase-2 transferred biotinylated ADP-ribose to itself from biotinylated NAD as co-substrate and the detection reaction where a time resolved FRET between cryptate labelled anti-GST bound to the GST tag of the enzyme and Xlent® labelled-streptavidin bound the biotin-parsylation residue was analysed. The autoparsylation activity was detectable directly via the increase in HTRF signal.
(§5) The autoparsylation assay was performed as 384-well HTRF® (Cisbio, Codolet, France) assay format in Greiner low volume nb 384-well microtiter plates and was used for high throughput screen. 250 nM GST-tagged Tankyrase-1 (1023-1327 aa), respectively about 250 nM GST-tagged Tankyrase-2 (873-1166 aa) and 5 μM bio-NAD (Biolog, Life science Inst., Bremen, Germany) as co-substrate were incubated in a total volume of 5 μl (50 mM HEPES, 4 mM Mg-chloride, 0.05% Pluronic F-68, 1.4 mM DTT, 0.5% DMSO, pH 7.7) in the absence or presence of the test compound (10 dilution concentrations) for 90 min at 30° C. The reaction was stopped by the addition of 1 μl 50 mM EDTA solution. 2 μl of the detection solution (1.6 μM SA-Xlent® (Cisbio, Codolet, France), 7.4 nM Anti-GST-K® (Eu-labelled anti-GST, Cisbio, Codolet, France) in 50 mM HEPES, 800 mM KF, 0.1% BSA, 20 mM EDTA, 0.1% CHAPS, pH 7.0) were added. After 1 h incubation at room temperature the HTRF was measured with an Envision multimode reader (Perkin Elmer LAS Germany GmbH) at excitation wavelength 340 nm (laser mode) and emission wavelengths 615 nm and 665 nm. The ratio of the emission signals was determined. The full value used was the inhibitor-free reaction. The pharmacological zero value used was XAV-939 (Tocris) in a final concentration of 5 μM. The inhibitory values (IC50) were determined using either the program Symyx Assay Explorer® or Condosseo® from GeneData.

[4] = target: T4, GST-tagged Tankyrase-2 (873-1166 aa) (Homo sapiens, UniProt Q9H2K2); assay: Tankyrase 2 autoparsylation assay (HTRF enzyme assay); assay type: biochemical
T4 construct: GST-tagged Tankyrase-2 (873-1166 aa)
Experimental: as §4, §5

His-tagged Parp-1 = target: T5, His-tagged Parp-1 (Homo sapiens, UniProt P09874); assay: PARP-1 autoparsylation assay (HTRF); assay type: biochemical; conditions: read-out: IC50 PARP1
T5 construct: purchased Enzo Life Sciences GmbH, Lörrach, Germany
Experimental: Biochemical Activity Testing of PARP-1: Autoparsylation Assay
as §4, with “His-tagged Parp-1” for “GST-tagged Tankyrase-1, resp Tankyrase-2”, “ADP-ribose/ADP-ribose” for “ADP-ribose”, “NAD/NAD” for “NAD”, “anti-His antibody” for “anti-GST”, “His” for “GST”
The autoparsylation assay was performed as 384-well HTRF® (Cisbio, Codolet, France) assay format in Greiner low volume nb 384-well microtiter plates. 35 nM His-tagged Parp-1 (human, recombinant, Enzo Life Sciences GmbH, Lörrach, Germany) and a mixture of 125 nM bio-NAD (Biolog, Life science Inst., Bremen, Germany) and 800 nM NAD as co-substrate were incubated in a total volume of 6 μl (100 mM Tris/HCl, 4 mM Mg-chloride, 0.01% IGEPAL® CA630, 1 mM DTT, 0.5% DMSO, pH 8, 13 ng/μl activated DNA (BPS Bioscience, San Diego, US)) in the absence or presence of the test compound (10 dilution concentrations) for 150 min at 23° C. The reaction was stopped by the addition of 4 μl of the Stop/detection solution (70 nM SA-Xlent® (Cisbio, Codolet, France), 2.5 nM Anti-His-K® (Eu-labelled anti-His, Cisbio, Codolet, France) in 50 mM HEPES, 400 mM KF, 0.1% BSA, 20 mM EDTA, pH 7.0). After 1 h incubation at room temperature the HTRF was measured with an Envision multimode reader (Perkin Elmer LAS Germany GmbH) at excitation wavelength 340 nm (laser mode) and emission wavelengths 615 nm and 665 nm. The ratio of the emission signals was determined. The full value used was the inhibitor-free reaction. The pharmacological zero value used was Olaparib (LClabs, Woburn, US) in a final concentration of 1 μM. The inhibitory values (IC50) were determined using either the program Symyx Assay Explorer® or Condosseo® from GeneData.

DLD-1-cancer cells = conditions: cited from earlier work

T2 sequence (O95271 1023-1327): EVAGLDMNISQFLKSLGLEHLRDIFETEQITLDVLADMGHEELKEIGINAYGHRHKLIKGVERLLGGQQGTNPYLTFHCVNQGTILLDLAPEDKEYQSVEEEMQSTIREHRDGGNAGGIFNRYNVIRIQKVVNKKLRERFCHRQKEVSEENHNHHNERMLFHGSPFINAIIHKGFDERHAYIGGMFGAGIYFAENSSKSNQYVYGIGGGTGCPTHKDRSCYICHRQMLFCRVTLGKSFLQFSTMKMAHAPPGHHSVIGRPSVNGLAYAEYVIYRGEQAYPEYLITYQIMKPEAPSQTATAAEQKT
T3 sequence (O95271 1023-1327): as above
T4 sequence (Q9H2K2 873-1166): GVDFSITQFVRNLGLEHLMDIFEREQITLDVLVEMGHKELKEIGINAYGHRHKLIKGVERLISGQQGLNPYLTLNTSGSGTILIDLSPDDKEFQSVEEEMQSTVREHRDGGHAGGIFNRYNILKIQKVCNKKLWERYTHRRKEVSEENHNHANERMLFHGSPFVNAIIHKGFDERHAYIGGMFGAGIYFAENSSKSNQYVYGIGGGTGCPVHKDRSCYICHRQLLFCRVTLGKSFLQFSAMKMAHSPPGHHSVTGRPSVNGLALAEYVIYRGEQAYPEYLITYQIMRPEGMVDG
T1 sequence (Q9H2K2 873-1166): as above
T5 sequence (P09874 whole entry): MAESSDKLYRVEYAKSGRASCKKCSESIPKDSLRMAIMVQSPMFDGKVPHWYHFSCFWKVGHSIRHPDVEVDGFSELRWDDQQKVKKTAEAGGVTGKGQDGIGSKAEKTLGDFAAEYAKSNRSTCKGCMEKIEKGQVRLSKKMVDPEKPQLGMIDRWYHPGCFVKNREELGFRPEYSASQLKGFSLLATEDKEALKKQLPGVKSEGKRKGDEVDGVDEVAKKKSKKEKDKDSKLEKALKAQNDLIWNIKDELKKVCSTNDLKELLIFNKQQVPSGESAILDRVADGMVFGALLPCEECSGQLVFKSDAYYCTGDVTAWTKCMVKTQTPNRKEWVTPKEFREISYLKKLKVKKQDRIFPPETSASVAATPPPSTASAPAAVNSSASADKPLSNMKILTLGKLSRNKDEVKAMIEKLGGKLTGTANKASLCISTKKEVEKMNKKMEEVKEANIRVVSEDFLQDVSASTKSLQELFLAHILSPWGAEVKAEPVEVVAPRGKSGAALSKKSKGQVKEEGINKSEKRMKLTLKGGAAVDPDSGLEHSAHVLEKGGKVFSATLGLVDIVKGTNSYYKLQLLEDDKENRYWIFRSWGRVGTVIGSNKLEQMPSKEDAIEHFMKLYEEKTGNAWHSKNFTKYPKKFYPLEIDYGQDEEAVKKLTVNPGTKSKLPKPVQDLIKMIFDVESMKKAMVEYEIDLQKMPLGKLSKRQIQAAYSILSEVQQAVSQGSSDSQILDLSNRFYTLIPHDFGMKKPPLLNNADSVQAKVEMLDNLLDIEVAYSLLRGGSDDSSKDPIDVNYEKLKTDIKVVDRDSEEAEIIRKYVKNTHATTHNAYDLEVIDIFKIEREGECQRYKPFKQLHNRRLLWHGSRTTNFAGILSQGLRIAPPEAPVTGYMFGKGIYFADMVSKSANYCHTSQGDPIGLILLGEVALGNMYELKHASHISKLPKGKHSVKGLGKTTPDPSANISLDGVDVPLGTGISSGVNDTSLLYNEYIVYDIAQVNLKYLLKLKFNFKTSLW

| IC50 (His-tagged Parp-1) [nM] | Compound | IC50 [1] [nM] | IC50 [2] [nM] | EC50 (tankyrase 1/2) [nM] | IC50 [3] [nM] | IC50 [4] [nM] | growth of DLD-1-cancer cells (DLD-1-cancer cells) |
| --- | --- | --- | --- | --- | --- | --- | --- |
| – | O=c1[nH]c(N2CCC(C(F)(F)F)CC2)nc2c1CCCC2 [Compound A10, 2-(4-Trifluoromethylpiperidin-1-yl)-5,6,7,8-tetrahydro-3H-quinazolin-4-one] | < 300 | < 300 | 3000 to 50000 | 300 to 3000 | 300 to 3000 | – |
| – | O=c1[nH]c(N2CCN(c3cccc(Cl)c3)CC2)nc2c1CCCC2 [Compound A11, 2-[4-(3-Chlorophenyl)piperazin-1-yl]-5,6,7,8-tetrahydro-3H-quinazolin-4-one] | < 300 | < 300 | 300 to 3000 | 300 to 3000 | 300 to 3000 | – |
| < 300 | NC(=O)c1ccccc1N1CCN(c2nc3c(c(=O)[nH]2)CCCC3)CC1 [Compound A34, 2-[4-(4-oxo-5,6,7,8-tetrahydro-3H-quinazolin-2-yl)piperazin-1-yl]benzamide] | < 300 | < 300 | – | < 300 | 300 to 3000 | – |
| – | COc1ccc(N2CCN(c3nc4c(c(=O)[nH]3)CCCC4)CC2)c(OC)c1 [Compound A37, 2-[4-(2,4-dimethoxyphenyl)piperazin-1-yl]-5,6,7,8-tetrahydro-3H-quinazolin-4-one] | < 300 | < 300 | 300 to 3000 | 300 to 3000 | 300 to 3000 | – |
| – | O=c1[nH]c(N2CCN(c3ccc(F)cc3Cl)CC2)nc2c1CCCC2 [Compound A39, 2-[4-(2-chloro-4-fluoro-phenyl)piperazin-1-yl]-5,6,7,8-tetrahydro-3H-quinazolin-4-one] | < 300 | < 300 | 300 to 3000 | 300 to 3000 | 300 to 3000 | – |
| – | COc1ccc(N2CCN(c3nc4c(c(=O)[nH]3)CCCC4)CC2)cn1 [Compound A51, 2-[4-(6-methoxy-3-pyridyl)piperazin-1-yl]-5,6,7,8-tetrahydro-3H-quinazolin-4-one] | 300 to 3000 | 300 to 3000 | 300 to 3000 | 300 to 3000 | 300 to 3000 | – |
| – | COc1ccccc1C1CCN(c2nc3c(c(=O)[nH]2)CCCC3)CC1 [Compound A54, 2-[4-(2-methoxy-phenyl)-piperidin-1-yl]-5,6,7,8-tetrahydro-3H-quinazolin-4-one] | < 300 | < 300 | 300 to 3000 | < 300 | 300 to 3000 | – |
| – | COc1ccc(C2CCN(c3nc4c(c(=O)[nH]3)CCCC4)CC2)cc1 [Compound A55, 2-[4-(4-methoxy-phenyl)-piperidin-1-yl]-5,6,7,8-tetrahydro-3H-quinazolin-4-one] | < 300 | < 300 | 3000 to 50000 | < 300 | 300 to 3000 | – |
| – | O=c1[nH]c(N2CCN(c3ccccc3C(F)(F)F)CC2)nc2c1CCCC2 [Compound A56, 2-[4-(2-trifluoromethyl-phenyl)-piperazin-1-yl]-5,6,7,8-tetrahydro-3H-quinazolin-4-one] | < 300 | < 300 | 300 to 3000 | < 300 | 300 to 3000 | – |
| – | Oc1nc(-c2ccc(C(F)(F)F)cc2)nc2c1CSCC2 [XAV939] | – | – | – | – | – | inhibits growth |
